# Columns and labels:
# Test in all cases: relative viability (nuclei count vs DMSO), 5 days (fraction); higher = more cells survive
# [1] = compound: CC(O)(CS(=O)(=O)c1ccc(F)cc1)C(=O)Nc1ccc(C#N)c(C(F)(F)F)c1 [Bicalutamide] + Nc1nc2[nH]cc(CCc3ccc(C(=O)N[C@@H](CCC(=O)O)C(=O)O)cc3)c2c(=O)[nH]1 [Pemetrexed] (partner 0.2 µM)
# Outline: (§1)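 Five library-drug doses in √10 steps were combined with a fixed anchor-drug dose, or a single drug was given alone, by pin tool to lung cancer cell lines in 1536-well plates the day after seeding. Nuclei were stained and counted after 5 days. Relative viability is the nuclei count in treated wells over that in vehicle wells, taken as the median of duplicate plates.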
# [2] = compound: C(C(=O)C(=O)O)Br [Bromopyruvate] + Cc1nc(NC(=O)N2CCC[C@H]2C(N)=O)sc1-c1ccnc(C(C)(C)C(F)(F)F)c1 [Alpelisib] (partner 2 µM)
# Outline: as §1
# [3] = compound: CC(O)(CS(=O)(=O)c1ccc(F)cc1)C(=O)Nc1ccc(C#N)c(C(F)(F)F)c1 [Bicalutamide]
# Outline: (§2)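 For viability, nuclei in each treated well were divided by nuclei in vehicle wells and the median across plates was taken. Lung cancer cell lines in 1536-well plates were pinned with five library-drug doses (not always all listed) spaced by √10, cultured 5 days without medium change, and imaged at 4× after Hoechst staining, with plates passing only at control CV below 25% and at least one doubling.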
# [4] = compound: C(C(=O)C(=O)O)Br [Bromopyruvate]
# Outline: as §2
Cell Line,relative viability ([1]; first compound 0.08 µM),relative viability ([1]; first compound 0.253 µM),relative viability ([1]; first compound 0.8 µM),relative viability ([1]; first compound 2.53 µM),relative viability ([2]; first compound 1 µM),relative viability ([2]; first compound 3.162 µM),relative viability ([2]; first compound 10 µM),relative viability ([2]; first compound 31.62 µM),relative viability ([2]; first compound 100 µM),relative viability ([3]; 0.08 µM),relative viability ([3]; 0.253 µM),relative viability ([3]; 0.8 µM),relative viability ([3]; 2.53 µM),relative viability ([4]; 1 µM),relative viability ([4]; 3.162 µM),relative viability ([4]; 10 µM),relative viability ([4]; 31.62 µM),relative viability ([4]; 100 µM)
NCI-H1651,0.597,0.525,0.672,0.618,0.881,1.06,0.876,0.868,0.912,0.995,0.93,1.16,0.972,1.01,0.991,1.07,0.958,0.924
NCI-H1666,0.886,0.865,0.894,0.879,1.21,1.07,1.11,1.02,0.774,1.04,0.854,0.96,1.01,0.971,0.98,1.04,0.937,0.965
NCI-H1734,0.428,0.405,0.455,0.393,0.624,0.728,0.684,0.663,0.704,0.991,0.886,1.14,0.926,0.971,1.02,1.15,1,0.979
NCI-H1755,0.386,0.379,0.434,0.477,0.95,0.925,0.968,0.963,0.97,0.988,1.01,1.05,0.876,0.977,0.964,1.06,1.01,1.02
NCI-H1792,0.825,0.658,1.16,0.831,0.715,0.788,0.906,0.708,0.703,0.987,0.779,1.19,0.962,1.14,1.21,0.805,0.811,0.928
NCI-H1793,0.914,–,1.07,0.907,0.659,0.715,0.751,0.697,0.702,0.823,0.736,1.02,0.809,1.03,1.09,1.12,0.959,1.08
NCI-H1915,0.509,0.516,0.481,0.48,1.03,1.05,1.04,1.12,1.08,1.01,0.922,1.14,0.964,1.02,0.984,1,1.01,0.997
NCI-H1944,0.562,0.599,0.681,0.611,0.8,0.85,0.904,0.821,0.858,0.993,0.873,1.06,0.978,1.02,0.995,0.967,0.904,1
NCI-H1975,0.316,0.311,0.299,0.306,0.77,0.752,0.606,0.635,0.593,0.935,0.942,0.998,0.775,1.02,0.962,1,0.939,0.906
NCI-H1993,0.66,0.669,0.557,0.597,0.691,0.705,0.668,0.642,0.644,0.896,0.811,0.987,0.996,0.833,1.01,1.1,0.945,0.951
NCI-H2009,1.13,1.04,1.11,0.91,1.11,1.15,1.21,1.07,1.01,1.11,1.05,1.04,0.927,0.975,1.04,0.96,0.925,0.734
NCI-H2023,0.267,0.175,0.279,0.223,0.613,0.728,0.593,0.646,0.542,1.01,0.903,1.17,0.907,0.893,0.962,1.15,0.958,0.959
NCI-H2085,0.837,0.708,0.912,0.775,0.968,0.785,0.894,0.975,0.851,1.01,0.955,1.01,0.94,1,1.04,1.03,1.07,1.02
NCI-H2087,0.684,0.662,0.695,0.613,1.03,1.14,1.02,1.25,0.829,1.09,1.06,1.25,1.07,0.947,1.07,1.09,1.04,0.974
NCI-H2126,0.675,0.597,0.785,0.638,0.796,0.755,0.768,0.751,0.744,0.967,0.949,1.01,0.95,1.03,0.995,1.05,0.958,1.03
NCI-H2170,0.251,0.262,0.281,0.25,0.833,0.831,0.764,0.914,0.864,0.916,0.931,1.1,0.987,0.938,0.947,0.95,0.969,1.01
NCI-H2228,0.343,0.351,0.334,0.323,0.656,0.866,0.806,0.698,0.631,0.798,0.967,1.56,1.09,1.07,1.04,1.27,0.851,1.02
NCI-H2347,0.463,0.444,0.453,0.445,1.07,1.16,1.38,0.849,1.13,1.1,0.913,1.19,1.03,1.06,0.956,1.01,0.837,1.03

# Source: the supplement of paper PMC10307832
